From patent US12605380B2, “Methods of improving lung function” (Endeavor BioMedicines, Inc., priority 2024, dated 2026)

Experiments:
Format in all cases: in vivo, human
[1] = system: subjects with Idiopathic Pulmonary Fibrosis (IPF); experiment: Post-hoc analysis of HRCT images with Qureight deep learning models (Lung8, Vascul8, Fibr8)
Excerpt: A post-hoc analysis utilizing deep learning models developed by Qureight (using machine learning methodologies such as 3D convolutional neural networks), were employed to quantify lung volume (Lung8), vessel volume (Vascul8), fibrosis extent (Fibr8) and airway volume (Air8) from High Resolution Computed Tomography images. Deep learning-based CT biomarkers provide an alternate, non-invasive way to predict disease progression and/or assess treatment effects in antifibrotic clinical trials. 34 patients with baseline and week 12 HRCTs were available for model analysis. Of the 34 patients, 18 patients received placebo, and 16 received ENV-101. Group comparisons were performed with an independent t-test, and linear regression assessed variable relationships. Effect sizes were calculated using Hedges' G to account for sample size bias. A p-value<0.05 was considered significant.

[2] = system: subjects with Idiopathic Pulmonary Fibrosis (IPF); experiment: Phase 2a study in IPF subjects: lung function by forced vital capacity (FVC, ppFVC)
Description: Study Design. Eligible subjects with mild to moderate IPF were randomized to receive placebo or ENV-101 as a daily oral dose for 12 consecutive weeks of treatment. […] Subjects participated in a Screening Visit, a Day 1 randomization visit, a telephone visit at Week 1, visits at Week 6 and Week 12 during the treatment period and a follow-up visit at Week 18. All subjects were randomized to receive either placebo or 200 mg of taladegib (ENV-101). During the treatment period, if a subject experienced an adverse event that is related to the study medication, the dose of the study drug was permitted to be modified based on the type of adverse event observed and after consultation with the Sponsor and Medical Monitor. A study subject was considered to have completed the study if he or she completed all study visits including the last visit or the last scheduled procedure shown in the Schedule of Activities (SoA). • 1. Males and females greater than 40 years of age. • 2. Idiopathic Pulmonary Fibrosis diagnosis based upon […], Japanese Respiratory Society, European Respiratory Society, Latin […] guidelines within the last 7 years. Diagnosis will be confirmed to be consistent with IPF by centrally read high resolution computed tomography (HRCT) obtained at the Screening Visit or previous HRCT scan performed within 30 days of the Screening Visit may be used. • 3. Ability to successfully perform lung function tests. • 4. Percent predicted forced vital capacity (FVC) of >50% at the Screening Visit. • 5. […] Evidence of other known causes of interstitial lung disease (ILD) (e.g., domestic and occupational environmental exposures, connective-tissue disease [CTD], and drug toxicity), lung transplant expected within 12 months of screening or evidence of clinically significant lung disease other than IPF including but not limited to asthma, chronic obstructive pulmonary disease (COPD), uncontrolled pulmonary hypertension and emphysema where computed tomography (CT)-assessed extent of emphysema is greater than extent of fibrosis. • 2. […]

[3] = system: subjects with Idiopathic Pulmonary Fibrosis (IPF); experiment: Phase 2a study in IPF subjects: quantitative HRCT measurements (TLC, % QILD, % QLF, % QGG)
Description: (§1) Study Design. Eligible subjects with mild to moderate IPF were randomized to receive placebo or ENV-101 as a daily oral dose for 12 consecutive weeks of treatment. […] Subjects participated in a Screening Visit, a Day 1 randomization visit, a telephone visit at Week 1, visits at Week 6 and Week 12 during the treatment period and a follow-up visit at Week 18. All subjects were randomized to receive either placebo or 200 mg of taladegib (ENV-101). During the treatment period, if a subject experienced an adverse event that is related to the study medication, the dose of the study drug was permitted to be modified based on the type of adverse event observed and after consultation with the Sponsor and Medical Monitor. A study subject was considered to have completed the study if he or she completed all study visits including the last visit or the last scheduled procedure shown in the Schedule of Activities (SoA). [table] The dosing regimen evaluated in this study was ENV-101 or placebo administered daily. The dose of ENV-101 studied was 200 mg. Subjects randomized to ENV-101 took two 100 mg tablets daily for the 200 mg dose, while subjects randomized to placebo took two placebo tablets daily. Subjects took both tablets at the same time, and it was recommended that subjects take the dose at the same time each day, ideally in the morning prior to eating. If a subject experienced nausea or other gastrointestinal symptoms, it was recommended that the subject take the dose with a low-fat meal or prior to bedtime.

[4] = system: subjects with Idiopathic Pulmonary Fibrosis (IPF); experiment: Phase 2a study in IPF subjects: patient reported outcome, UCSD Shortness of Breath Questionnaire (SOBQ); settings: 200 mg once a day, vs placebo, not statistically significant
Description: as §1, with “If a subject experienced nausea or other gastrointestinal symptoms, it was recommended that the subject take the dose with a low-fat meal or prior to bedtime.” left out

[5] = week 12, ENV-101 vs placebo, Hedges' G

In the case of `CN(C(=O)c1ccc(F)cc1C(F)(F)F)C1CCN(c2nnc(-c3ccnn3C)c3ccccc23)CC1` [taladegib], the “fibrosis (conclusion in words)” value ([1]; treated over 12 weeks) is reported as “reduced”, the “lung volume (conclusion in words)” value ([1]; treated over 12 weeks) is reported as “significantly improved” and the “pulmonary vascular volume (conclusion in words)” value ([1]; treated over 12 weeks) is reported as “significantly reduced”. For the same molecule, the “Change in Pulmonary vascular volume (normalised to lung volume)” value ([1]; week 12, 16 patients on ENV-101, p=0.0007 vs placebo) was −0.25%, the “Lung volume change (total lung volume, Lung8)” value ([1]; week 12, 16 patients on ENV-101, p=0.014 vs placebo) was 142.28 mL and the “Change in Fibrosis (extent, normalised to lung volume)” value ([1]; week 12, 16 patients on ENV-101, p=0.063 vs placebo) was −1.32%. The “effect size, change in pulmonary vascular volume” value [1, 5] was −1.28, the “effect size, lung volume change” value [1, 5] was 0.87 and the “mean change from baseline of percent predicted forced vital capacity (ppFVC)” value ([2]; IPF subjects, 200 mg QD, at 6 weeks (n=16)) was 1.7%. The “effect size, % predicted FVC” value ([2]; post-hoc analysis, ENV-101 vs placebo, Hedges' G) was 0.78, the “% predicted FVC compared to placebo” value ([2]; post-hoc analysis, patients with baseline and week 12 HRCT, p=0.03) was “significant improvement” and the “change from baseline in percent quantitative ground glass opacity (% QGG)” value ([3]; 200 mg once a day for 12 weeks) was “about −4.6%”. For the same molecule, the “change from baseline in percent quantitative interstitial lung disease (% QILD)” value ([3]; 200 mg once a day for 12 weeks) was “about −9%”, the “change from baseline in percent quantitative lung fibrosis (% QLF)” value ([3]; 200 mg once a day for 12 weeks) was “about −2%” and the “increase in total lung capacity (TLC)” value ([3]; 200 mg once a day for 12 weeks, p=0.005) was “about 200 mL”. The “increase in total lung capacity (TLC), percent” value ([3]; 200 mg once a day, over the three month treatment period) was “about 8%” and the “mean change from baseline of responses to the UCSD Shortness of Breath Questionnaire (SOBQ)” value [4] was “improvement”.
